According to ChEMBL document CHEMBL5634100, “Novel spiro[pyrrolidine-2,3'-quinoline]-2'-one derivatives containing piperazine fragment as potential chitin synthase inhibitors and antifungal agents: Design, synthesis and biological evaluation” (Eur J Med Chem, 2023):
In brackets after ≈: the same amount, converted by molar mass.

Legend:
Candida albicans [1] = test: Antimicrobial activity against fluconazole-resistant Candida albicans ATCC 76615R incubated for 24 hrs by two fold serial dilution method; assay type: functional
Cryptococcus neoformans [2] = test: Antimicrobial activity against Fluconazole-resistant Cryptococcus neoformans ATCC 32719R incubated for 24 hrs by two fold serial dilution method; assay type: functional
Candida albicans [3] = test: Additive antimicrobial activity against Candida albicans ATCC 76615 assessed as fractional inhibitory concentration index incubated for 24 hrs in presence of polyoxin B by checkerboard method; assay type: functional
Aspergillus flavus [4] = test: Antimicrobial activity against Aspergillus flavus ATCC 16870 incubated for 24 hrs in presence of polyoxin B by checkerboard method; assay type: functional
Cryptococcus neoformans [5] = test: Antimicrobial activity against Cryptococcus neoformans ATCC 32719 incubated for 24 hrs in presence of polyoxin B by checkerboard method; assay type: functional
Aspergillus fumigatus [6] = test: Antimicrobial activity against Aspergillus fumigatus GIMCC 3.19 incubated for 24 hrs by two fold serial dilution method; assay type: functional
Candida albicans [7] = test: Antimicrobial activity against Candida albicans ATCC 76615 incubated for 24 hrs by two fold serial dilution method; assay type: functional
Aspergillus fumigatus [8] = test: Antimicrobial activity against Fluconazole-resistant Aspergillus fumigatus GIMCC 3.19R incubated for 24 hrs by two fold serial dilution method; assay type: functional
Candida albicans [9] = test: Antimicrobial activity against Candida albicans ATCC 76615 incubated for 24 hrs in presence of fluconazole by checkerboard method; assay type: functional
Aspergillus fumigatus [10] = test: Synergistic antimicrobial activity against Aspergillus fumigatus GIMCC 3.19 assessed as fractional inhibitory concentration index incubated for 24 hrs in presence of fluconazole by checkerboard method; assay type: functional
Candida albicans [11] = test: Synergistic antimicrobial activity against Candida albicans ATCC 76615 assessed as fractional inhibitory concentration index incubated for 24 hrs in presence of fluconazole by checkerboard method; assay type: functional
Candida tropicalis = test: Inhibition of Candida tropicalis ATCC 750 chitin synthase using UDP-GlcNAc as substrate at 300 ug/ml by TMB based microplate analyzer relative to control; conditions: dose 300.0 µg/ml
Aspergillus fumigatus [12] = test: Antimicrobial activity against Aspergillus fumigatus GIMCC 3.19 incubated for 24 hrs in presence of polyoxin B by checkerboard method; assay type: functional
Candida albicans [13] = test: Antimicrobial activity against Candida albicans ATCC 76615 assessed as inhibition of cell wall synthesis in presence of sorbitol; assay type: functional
Cryptococcus neoformans [14] = test: Antimicrobial activity against Cryptococcus neoformans ATCC 32719 incubated for 24 hrs by two fold serial dilution method; assay type: functional
Aspergillus fumigatus [15] = test: Antimicrobial activity against Aspergillus fumigatus GIMCC 3.19 assessed as inhibition of cell wall synthesis in presence of sorbitol; assay type: functional
Aspergillus flavus [16] = test: Antimicrobial activity against Aspergillus flavus ATCC 16870 assessed as inhibition of cell wall synthesis in presence of sorbitol; assay type: functional
Candida albicans [17] = test: Antimicrobial activity against Candida albicans ATCC 76615 incubated for 24 hrs in presence of polyoxin B by checkerboard method; assay type: functional
Candida albicans [18] = test: Antimicrobial activity against micafungin-resistant Candida albicans ATCC 76615R incubated for 24 hrs by two fold serial dilution method; assay type: functional
Cryptococcus neoformans [19] = test: Antimicrobial activity against Cryptococcus neoformans ATCC 32719 incubated for 24 hrs in presence of fluconazole by checkerboard method; assay type: functional
Cryptococcus neoformans [20] = test: Antimicrobial activity against Cryptococcus neoformans ATCC 32719 assessed as inhibition of cell wall synthesis in presence of sorbitol; assay type: functional
[21] = Inhibition of Candida tropicalis ATCC 750 chitin synthase using UDP-GlcNAc as substrate by TMB based microplate analyzer
Cryptococcus neoformans [22] = test: Additive antimicrobial activity against Cryptococcus neoformans ATCC 32719 assessed as fractional inhibitory concentration index incubated for 24 hrs in presence of fluconazole by checkerboard method; assay type: functional
Aspergillus flavus [23] = test: Antimicrobial activity against Aspergillus flavus ATCC 16870 incubated for 24 hrs by two fold serial dilution method; assay type: functional
Aspergillus flavus [24] = test: Additive antimicrobial activity against Aspergillus flavus ATCC 16870 assessed as fractional inhibitory concentration index incubated for 24 hrs in presence of fluconazole by checkerboard method; assay type: functional
Aspergillus fumigatus [25] = test: Synergistic antimicrobial activity against Aspergillus fumigatus GIMCC 3.19 assessed as fractional inhibitory concentration index incubated for 24 hrs in presence of polyoxin B by checkerboard method; assay type: functional
Aspergillus flavus [26] = test: Antimicrobial activity against Fluconazole-resistant Aspergillus flavus ATCC 16870R incubated for 24 hrs by two fold serial dilution method; assay type: functional
Aspergillus flavus [27] = test: Additive antimicrobial activity against Aspergillus flavus ATCC 16870 assessed as fractional inhibitory concentration index incubated for 24 hrs in presence of polyoxin B by checkerboard method; assay type: functional
Aspergillus flavus [28] = test: Antimicrobial activity against Aspergillus flavus ATCC 16870 incubated for 24 hrs in presence of fluconazole by checkerboard method; assay type: functional
Cryptococcus neoformans [29] = test: Additive antimicrobial activity against Cryptococcus neoformans ATCC 32719 assessed as fractional inhibitory concentration index incubated for 24 hrs in presence of polyoxin B by checkerboard method; assay type: functional
Aspergillus fumigatus [30] = test: Antimicrobial activity against Aspergillus fumigatus GIMCC 3.19 incubated for 24 hrs in presence of fluconazole by checkerboard method; assay type: functional
Cryptococcus neoformans [31] = test: Synergistic antimicrobial activity against Cryptococcus neoformans ATCC 32719 assessed as fractional inhibitory concentration index incubated for 24 hrs in presence of fluconazole by checkerboard method; assay type: functional
Aspergillus fumigatus [32] = test: Additive antimicrobial activity against Aspergillus fumigatus GIMCC 3.19 assessed as fractional inhibitory concentration index incubated for 24 hrs in presence of fluconazole by checkerboard method; assay type: functional
Candida albicans [33] = test: Synergistic antimicrobial activity against Candida albicans ATCC 76615 assessed as fractional inhibitory concentration index incubated for 24 hrs in presence of polyoxin B by checkerboard method; assay type: functional
Aspergillus fumigatus [34] = test: Additive antimicrobial activity against Aspergillus fumigatus GIMCC 3.19 assessed as fractional inhibitory concentration index incubated for 24 hrs in presence of polyoxin B by checkerboard method; assay type: functional
Aspergillus flavus [35] = test: Synergistic antimicrobial activity against Aspergillus flavus ATCC 16870 assessed as fractional inhibitory concentration index incubated for 24 hrs in presence of fluconazole by checkerboard method; assay type: functional
Cryptococcus neoformans [36] = test: Synergistic antimicrobial activity against Cryptococcus neoformans ATCC 32719 assessed as fractional inhibitory concentration index incubated for 24 hrs in presence of polyoxin B by checkerboard method; assay type: functional

Row | SMILES | MIC (Candida albicans [1]) | MIC (Cryptococcus neoformans [2]) | MIC (Aspergillus flavus [4]) | MIC (Cryptococcus neoformans [5]) | MIC (Aspergillus fumigatus [6]) | MIC (Candida albicans [7]) | MIC (Aspergillus fumigatus [8]) | MIC (Candida albicans [9]) | fractional inhibitory concentration index (FICI) (Candida albicans [11]) | inhibition (Candida tropicalis) | MIC (Aspergillus fumigatus [12]) | MIC (Candida albicans [13]) | MIC (Cryptococcus neoformans [14]) | MIC (Aspergillus fumigatus [15]) | MIC (Aspergillus flavus [16]) | MIC (Candida albicans [17]) | MIC (Candida albicans [18]) | MIC (Cryptococcus neoformans [19]) | MIC (Cryptococcus neoformans [20]) | IC50 [21] | other results
1 | O=C(c1cccc(F)c1)N1CCN(CC(=O)N2CCCC23Cc2ccccc2NC3=O)CC1 (configuration not stated) | 32 µg/mL (≈ 71 µM) | 32 µg/mL (≈ 71 µM) | 2 µg/mL | 2 µg/mL | 1 µg/mL (≈ 2.22 µM) | 1 µg/mL (≈ 2.22 µM) | 32 µg/mL (≈ 71 µM) | 1 µg/mL | 0.75 | 76.8% | 4 µg/mL | 64 µg/mL | 8 µg/mL (≈ 17.8 µM) | 128 µg/mL | 64 µg/mL | 0.5 µg/mL | 128 µg/mL (≈ 284 µM) | 2 µg/mL | 64 µg/mL | 140 µM | fractional inhibitory concentration index (FICI) (Candida albicans [3]): 1.063; fractional inhibitory concentration index (FICI) (Aspergillus fumigatus [10]): 0.5; fractional inhibitory concentration index (FICI) (Cryptococcus neoformans [22]): 1.25; MIC (Aspergillus flavus [23]): 4 µg/mL (≈ 8.88 µM); fractional inhibitory concentration index (FICI) (Aspergillus flavus [24]): 1.25; fractional inhibitory concentration index (FICI) (Aspergillus fumigatus [25]): 0.625; MIC (Aspergillus flavus [26]): 32 µg/mL (≈ 71 µM); fractional inhibitory concentration index (FICI) (Aspergillus flavus [27]): 1.25; MIC (Aspergillus flavus [28]): 2 µg/mL; fractional inhibitory concentration index (FICI) (Cryptococcus neoformans [29]): 1.125; MIC (Aspergillus fumigatus [30]): 1 µg/mL
2 | O=C(c1cc([N+](=O)[O-])ccc1Cl)N1CCN(CC(=O)N2CCCC23Cc2ccccc2NC3=O)CC1 (configuration not stated) | 32 µg/mL (≈ 62.5 µM) | 128 µg/mL (≈ 250 µM) | 1 µg/mL | 4 µg/mL | 4 µg/mL (≈ 7.81 µM) | 1 µg/mL (≈ 1.95 µM) | 32 µg/mL (≈ 62.5 µM) | 2 µg/mL | 1 | 82.9% | 2 µg/mL | 32 µg/mL | 4 µg/mL (≈ 7.81 µM) | 128 µg/mL | 64 µg/mL | 2 µg/mL | 32 µg/mL (≈ 62.5 µM) | 4 µg/mL | 256 µg/mL | 100 µM | fractional inhibitory concentration index (FICI) (Cryptococcus neoformans [31]): 0.625; fractional inhibitory concentration index (FICI) (Aspergillus fumigatus [32]): 1.25; fractional inhibitory concentration index (FICI) (Candida albicans [33]): 0.75; fractional inhibitory concentration index (FICI) (Aspergillus fumigatus [34]): 1.25; fractional inhibitory concentration index (FICI) (Aspergillus flavus [35]): 0.75; MIC (Aspergillus flavus [23]): 1 µg/mL (≈ 1.95 µM); fractional inhibitory concentration index (FICI) (Cryptococcus neoformans [36]): 0.5; MIC (Aspergillus flavus [26]): 32 µg/mL (≈ 62.5 µM); fractional inhibitory concentration index (FICI) (Aspergillus flavus [27]): 1.125; MIC (Aspergillus flavus [28]): 4 µg/mL; MIC (Aspergillus fumigatus [30]): 1 µg/mL
